Measurements as given in PMC8896685 (PLoS ONE, 2022).
Numbered stars: 1 amine (or outer) side, 2 acyl side, 3 side chain; on linkers, the order of the positions; unused ones are H or OH. Square brackets hold non-standard residues; d marks the D form. Side chains are listed from the residue outwards. Peptide text beside a SMILES is read from it. * marks the point of attachment. C18 diacid = O=C(O)CCCCCCCCCCCCCCCCC(=O)*; γGlu = O=C(O)[C@H](CCC(=O)[*:2])N[*:1]; Desaminohistidyl = O=C(CCc1c[nH]cn1)*; Ac4c = NC1(C(=O)O)CCC1; AEEA = NCCOCCOCC(=O)O; Aib = CC(C)(N)C(=O)O

What was measured:
[1] = tested on: DIO mice; test: Subchronic effect on glucose tolerance in DIO mice (IPGTT at steady state); type: in vivo, mouse; details: after 3 weeks daily s.c. dosing, Cmax (5 h post dosing), p<0.001
[2] = target: T1, Mouse GCGR (Mus musculus, UniProt Q61606); test: Receptor potency, CRE-luciferase functional assay in BHK cells; type: cell-based; details: Mouse receptors, whole BHK cells, 3 h 37°C, value (95% CI)
T1 construct: a plasmid encoding either the glucagon receptor or the GLP-1 receptor from the relevant species; expressed in transfected cells
T1 sequence (Q61606 27-485): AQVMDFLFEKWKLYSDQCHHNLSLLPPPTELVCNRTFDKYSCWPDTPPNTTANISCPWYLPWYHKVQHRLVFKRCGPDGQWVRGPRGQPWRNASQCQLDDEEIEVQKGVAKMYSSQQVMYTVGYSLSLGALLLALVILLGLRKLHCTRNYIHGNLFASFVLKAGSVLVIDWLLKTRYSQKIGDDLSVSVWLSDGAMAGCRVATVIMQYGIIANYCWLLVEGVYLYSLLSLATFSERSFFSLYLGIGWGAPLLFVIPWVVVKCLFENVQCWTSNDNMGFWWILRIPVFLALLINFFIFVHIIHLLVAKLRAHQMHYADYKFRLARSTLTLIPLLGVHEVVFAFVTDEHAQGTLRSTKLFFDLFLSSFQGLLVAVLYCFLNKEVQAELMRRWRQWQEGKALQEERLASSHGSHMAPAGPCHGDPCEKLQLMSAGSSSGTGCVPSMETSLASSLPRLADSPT
Protocol: (§1) The binding assay was performed on cell membranes in the presence of 1% (v/v) species-specific heparin-treated pooled plasma (Bioreclamation IVT, Westbury, NY) diluted in assay buffer (50 mM HEPES supplemented with 5 mM EGTA, 5 mM MgCl2, and 0.005% (v/v) Tween 20, pH7.4). […] Cells stably expressing an individual receptor of interest were grown at 5% CO2, 37°C in DMEM (supplemented with 10% FCS, 0.5 mg/ml G418 and 0.3 mg/ml hygromycin). Membrane preparations were made from cells harvested at approximately 80% confluence, washed and homogenized in 20 mM HEPES with 0.1 mM EDTA, pH 7.4. Protein concentration was determined, and the membranes were stored at -80°C until use. The membrane binding assay was performed in a 96-well OptiPlate (PerkinElmer) in a total volume of 200 μl. Test compounds were dissolved in 80% DMSO and further diluted in assay buffer. 50 μl of diluted plasma was added to the assay plate wells followed by addition of test compounds (25 μl), cell membranes (50 μl, 0.06 mg/ml), SPA beads (20 mg/ml in assay buffer) and radioligand (60,000 cpm/well, corresponding to 0.06 nM; 2200 Ci/mmol. Each assay plate was incubated for 2 h at 30°C, centrifuged at 1500 rpm for 10 minutes and counted in a TopCount NXT instrument (PerkinElmer).
(§2) Functional assays were performed on whole cells in the absence or presence of 100% species-specific heparin-treated pooled plasma (Bioreclamation IVT). […] The cells were cultured with DMEM (supplemented with GlutaMAX, 10% FBS, 0.5 mg/ml G418 and 0.3 mg/ml hygromycin) at 5% CO2 and 37°C. At approximately 80–90% confluence, cells were washed with PBS and harvested with Versene (Life Technologies, Carlsbad, CA). The cells were counted and plated into 96-well microtiter plates coated with poly-D-Lys (Corning BioCoat) with 5,000 cells/well and thereafter incubated overnight in growth media. The next day the media was changed to assay buffer (DMEM without phenol red, supplemented with GlutaMAX, 10 mM HEPES, 1% ovalbumin and 0.1% Pluronic F-68) or to 100% plasma. In the absence of plasma, compounds were diluted in assay buffer. In assays tested with plasma, compounds were diluted in pure plasma. Buffer was removed from the plates and 50 μl of test compound dilutions was added to the plates followed by 50 μl of plasma or the same buffer used for compound dilution. The assay plates were incubated for 3 h in a 5% CO2 incubator at 37°C. The plates were then transferred to room temperature for 15 min and 100 μl Steadylite Plus reagent (PerkinElmer) was added to each well. The plates were shaken for 30 min at room temperature while protected from light after which luminescence was measured.
(§3) For the receptor binding assays, logIC50 values were calculated using non-linear regression analysis. The error estimation was reported as the 95% confidence interval. […] The calculations were performed in GraphPad Prism 6.4 (GraphPad, San Diego, CA) and error estimation was expressed as the 95% confidence interval. […] Averages, error estimation, ratios and plasma shifts were all calculated on logIC50 or logEC50 values and transformed to the anti-log values for reporting purposes.

[3] = target: T2, Mouse GLP-1R (Mus musculus, UniProt O35659); test: as above; type: cell-based; details: Mouse receptors, whole BHK cells, 3 h 37°C, value (95% CI)
T2 construct: a plasmid encoding either the glucagon receptor or the GLP-1 receptor from the relevant species; expressed in transfected cells
T2 sequence (O35659 22-463): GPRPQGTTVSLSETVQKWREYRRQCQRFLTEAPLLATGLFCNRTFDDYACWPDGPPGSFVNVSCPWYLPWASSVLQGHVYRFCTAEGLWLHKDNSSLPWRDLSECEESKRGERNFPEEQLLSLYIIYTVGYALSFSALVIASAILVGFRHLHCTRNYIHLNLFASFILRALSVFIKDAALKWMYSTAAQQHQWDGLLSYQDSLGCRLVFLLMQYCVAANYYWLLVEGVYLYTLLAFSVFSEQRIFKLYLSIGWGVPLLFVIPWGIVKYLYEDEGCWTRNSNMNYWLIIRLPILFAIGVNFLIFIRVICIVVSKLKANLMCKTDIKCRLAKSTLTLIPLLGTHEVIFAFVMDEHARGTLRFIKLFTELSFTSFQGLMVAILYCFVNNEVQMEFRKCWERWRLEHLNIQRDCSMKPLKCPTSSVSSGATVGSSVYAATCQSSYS
Protocol: as §1, §2, §3

[4] = tested on: DIO rats; test: Subchronic effect on body weight, body composition and food intake in DIO rats; type: in vivo, rat; details: three weeks
Text: Male C57Bl/6J mice were purchased from Jackson Lab (Bar Harbour, ME) or Taconic, (Denmark). Male Sprague Dawley rats were purchased from Taconic (Denmark). Lean animals were fed regular chow diet (Altromin 1324, Brogaarden, Denmark). Obese animals were fed a high-fat diet, 45% kcal from fat (D12492, Research Diets, New Brunswick, NJ) from the age of 4–6 weeks in order to obtain a diet induced obese (DIO) phenotype. Animals were housed under temperature and humidity-controlled conditions in a 12:12 hr light:dark cycle (lights on at 6 a.m.). Rats were housed three per cage during high fat feeding and were single housed five weeks prior to study. Mice were single housed, two per cage, with a partitioning wall where possible. All animals had ad libitum access to diet and water, except when fasted prior to experimental procedures. Animals were acclimatized to study conditions (energy expenditure cages, daily mock handling etc) at least one week prior to first dose. […] At the time of study, animals were 20–30 weeks old with a body weight of 45–50 g (DIO mice) or approximately 600 g (DIO rats). […] Oral glucose tolerance was evaluated on study day 15, 5 h post-dosing (at Cmax). Animals were fasted for 5 h prior to oral administration of glucose (3 g/kg). […] Conscious animals were MR-scanned prior to initiation of treatment and at the end of the treatment period.

[5] = target: T3, Rat GCGR (Rattus norvegicus, UniProt P30082); test: Receptor potency, CRE-luciferase functional assay in BHK cells; type: cell-based; details: Rat receptors, whole BHK cells, 0% plasma, 3 h 37°C, value (95% CI)
T3 construct: a plasmid encoding either the glucagon receptor or the GLP-1 receptor from the relevant species; expressed in transfected cells
T3 sequence (P30082 27-485): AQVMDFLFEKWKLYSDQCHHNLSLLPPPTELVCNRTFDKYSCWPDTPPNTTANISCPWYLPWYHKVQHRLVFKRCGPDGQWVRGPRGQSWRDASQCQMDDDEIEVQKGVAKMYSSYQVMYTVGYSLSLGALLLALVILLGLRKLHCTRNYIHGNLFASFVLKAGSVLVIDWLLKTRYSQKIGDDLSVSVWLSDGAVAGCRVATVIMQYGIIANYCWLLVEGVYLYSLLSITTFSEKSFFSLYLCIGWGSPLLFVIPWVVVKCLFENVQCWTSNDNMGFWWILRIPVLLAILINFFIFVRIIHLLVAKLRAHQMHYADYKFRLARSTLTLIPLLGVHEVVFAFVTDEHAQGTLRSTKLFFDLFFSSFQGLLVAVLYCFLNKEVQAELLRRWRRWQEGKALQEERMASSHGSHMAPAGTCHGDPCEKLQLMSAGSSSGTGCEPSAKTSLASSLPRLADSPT
Protocol: as §1, §2, §3

[6] = target: T1, Mouse GCGR; test: Receptor binding, SPA competitive binding assay; details: SPA competitive binding on BHK cell membranes, [125I]-glucagon tracer, 1% species specific plasma, 2 h 30°C; value (95% CI)
Protocol: as §1, §3

[7] = GCGR EC50, pM (95% CI) 100% plasma, 100% species-specific plasma
[8] = GLP-1R EC50, pM (95% CI) 100% plasma, 100% species-specific plasma

Row | EC50 [2, 7] [pM] | EC50 [3, 8] [pM] | EC50 [5] [nM] | IC50 [6] [nM] | EC50 ([2]; GCGR EC50, pM (95% CI) 0% plasma, 0% plasma) [pM] | SMILES | Basal blood glucose vs vehicle [1] | EC50 ([3]; GLP-1R EC50, pM (95% CI) 0% plasma, 0% plasma) [pM] | Weight loss ([4]; 3 nmol/kg each compound s.c. once daily) [%] | Cumulative food intake ([4]; 3 nmol/kg s.c. once daily)
1 | 442000 | 24.6 | 35.3 | – | – | CC(C)C[C@H](NC(=O)[C@H](CC(C)C)NC(=O)[C@H](Cc1c[nH]c2ccccc12)NC(=O)[C@H](CCC(N)=O)NC(=O)[C@@H](NC(=O)[C@H](Cc1ccccc1)NC(=O)[C@H](CCC(=O)O)NC(=O)[C@H](CCCNC(=N)N)NC(=O)[C@H](C)NC(=O)[C@H](C)NC(=O)[C@H](CCCNC(=N)N)NC(=O)[C@H](CO)NC(=O)[C@H](CC(=O)O)NC(=O)[C@H](CC(C)C)NC(=O)[C@H](Cc1ccc(O)cc1)NC(=O)[C@H](CCCCN)NC(=O)[C@H](CO)NC(=O)[C@H](CC(C)C)NC(=O)[C@H](CC(=O)O)NC(=O)[C@H](CO)NC(=O)[C@@H](NC(=O)[C@H](Cc1ccccc1)NC(=O)[C@@H](NC(=O)CNC(=O)[C@H](CCC(=O)O)NC(=O)C(C)(C)NC(=O)[C@@H](N)Cc1c[nH]cn1)[C@@H](C)O)[C@@H](C)O)C(C)C)C(=O)N[C@@H](CC(N)=O)C(=O)N[C@@H](CCCCNC(=O)CC[C@H](NC(=O)CC[C@H](NC(=O)COCCOCCNC(=O)COCCOCCNC(=O)CC[C@H](NC(=O)CCCCCCCCCCCCCCCCC(=O)O)C(=O)O)C(=O)O)C(=O)O)C(N)=O [GLP-1 reference] (H-H[Aib]EGTFTSDLSKYLDSRAAREFVQWLLNK([γGlu-γGlu-AEEA-AEEA-γGlu-C18 diacid])-NH2) | – | – | 5 | equal reduction
2 | 2540 | 95.3 | – | 14 | 29.7 | CC[C@H](C)[C@H](NC(=O)[C@H](Cc1ccccc1)NC(=O)[C@H](CCC(=O)O)NC(=O)[C@H](CCCNC(=N)N)NC(=O)[C@H](C)NC(=O)[C@H](C)NC(=O)[C@H](CCC(N)=O)NC(=O)[C@H](CCC(=O)O)NC(=O)[C@H](CCC(=O)O)NC(=O)[C@H](CC(C)C)NC(=O)[C@H](Cc1ccc(O)cc1)NC(=O)[C@H](CCCCN)NC(=O)[C@H](CO)NC(=O)[C@@H](NC(=O)[C@H](CC(=O)O)NC(=O)[C@H](CO)NC(=O)[C@@H](NC(=O)[C@H](Cc1ccccc1)NC(=O)[C@@H](NC(=O)CNC(=O)[C@H](Cc1c[nH]cn1)NC(=O)C(C)(C)NC(=O)CCc1c[nH]cn1)[C@@H](C)O)[C@@H](C)O)C(C)C)C(=O)N[C@@H](C)C(=O)N[C@@H](Cc1c[nH]c2ccccc12)C(=O)N[C@@H](CC(C)C)C(=O)N[C@@H](CC(C)C)C(=O)N[C@@H](CCCCNC(=O)COCCOCCNC(=O)COCCOCCNC(=O)CC[C@H](NC(=O)CC[C@H](NC(=O)CCCCCCCCCCCCCCCCC(=O)O)C(=O)O)C(=O)O)C(=O)N[C@H](C(N)=O)[C@@H](C)O [NN1359] (Desaminohistidyl-[Aib]HGTFTSDVSKYLEEQAAREFIAWLLK([AEEA-AEEA-γGlu-γGlu-C18 diacid])T-NH2) | significantly improved | – | – | –

Row | SMILES | EC50 [2, 7] [pM] | EC50 [3, 8] [pM] | EC50 [5] [nM] | IC50 [6] [nM] | EC50 ([2]; GCGR EC50, pM (95% CI) 0% plasma, 0% plasma) [pM] | Basal blood glucose vs vehicle [1] | EC50 ([3]; GLP-1R EC50, pM (95% CI) 0% plasma, 0% plasma) [pM] | Weight loss ([4]; 3 nmol/kg each compound s.c. once daily) [%] | Cumulative food intake ([4]; 3 nmol/kg s.c. once daily)
3 | CC(C)C[C@H](NC(=O)[C@H](CC(=O)O)NC(=O)[C@H](CC(C)C)NC(=O)[C@H](Cc1ccc(O)cc1)NC(=O)[C@H](CCCCN)NC(=O)[C@H](CO)NC(=O)[C@H](CC(C)C)NC(=O)[C@H](CC(=O)O)NC(=O)[C@H](CO)NC(=O)[C@@H](NC(=O)[C@H](Cc1ccccc1)NC(=O)[C@@H](NC(=O)CNC(=O)[C@H](CCC(N)=O)NC(=O)C1(NC(=O)[C@@H](N)Cc2c[nH]cn2)CCC1)[C@@H](C)O)[C@@H](C)O)C(=O)N[C@@H](CCCNC(=N)N)C(=O)N[C@@H](CCCNC(=N)N)C(=O)N[C@@H](C)C(=O)N[C@@H](CCCNC(=N)N)C(=O)N[C@@H](CC(=O)O)C(=O)N[C@@H](Cc1ccccc1)C(=O)N[C@H](C(=O)N[C@@H](CCC(N)=O)C(=O)N[C@@H](Cc1c[nH]c2ccccc12)C(=O)N[C@@H](CC(C)C)C(=O)N[C@@H](CC(C)C)C(=O)N[C@@H](CCCCNC(=O)CC[C@H](NC(=O)CC[C@H](NC(=O)COCCOCCNC(=O)COCCOCCNC(=O)CC[C@H](NC(=O)CC[C@H](NC(=O)CCCCCCCCCCCCCCCCC(=O)O)C(=O)O)C(=O)O)C(=O)O)C(=O)O)C(=O)N[C@H](C(N)=O)[C@@H](C)O)C(C)C [NN1151] (H-H[Ac4c]QGTFTSDLSKYLDLRRARDFVQWLLK([γGlu-γGlu-AEEA-AEEA-γGlu-γGlu-C18 diacid])T-NH2) | 60.3 | 161 | – | – | – | improved | 1.13 | – | –
